Source: US20210130420A1, “RECOMBINANT BINDING PROTEINS TARGETING HER2 AND SERUM ALBUMIN, AND THEIR USES” (Molecular Partners AG, priority 2016, published 2021)
Where two headings read alike, the source gives them in different places. Each block holds one molecule with its values, some of them ahead of it.

How the values were obtained:
BT474 cells = experiment: BT474 cell proliferation, BrdU-labeling; assay type: cell-based, human; conditions: Homo sapiens, BT-474, read-out: cell proliferation inhibition constant IC50, BT474
Protocol: Protein #21-His and Protein #23-His, were expressed and purified as described in Example 1. Effects of the recombinant binding proteins on BT474 cell proliferation were determined by measuring DNA synthesis using BrdU-labeling (BrdU, Cell Proliferation ELISA, Roche). Briefly, 10000 BT474 cells were seeded per well in a 96 well plate in 100 ul complete medium and incubated for 24 hours. Recombinant binding proteins or controls were added for an additional 72 hours. BrdU for cell labeling was added for the last 24 hours. Labeled (proliferating) cells were detected according to the manufactures protocol. The data were analyzed using the GraphPad prism software, plotting log [c] on the x-axis against OD450-602 nm on the y-axis. Data were fitted using a non-linear regression fit (log(antagonist) vs. response—Variable slope (four parameters)) deriving IC50 values.
Protein #21 and Protein #21-His were expressed and purified as described in Example 1. Standard BrdU cell proliferation assays were performed, well-known to the person skilled in the art. Briefly, effects on cell proliferation of Protein #21-His, other compounds, or Protein #21-His in combination with other compounds, were determined by measuring DNA synthesis using BrdU-labeling (BrdU, Cell Proliferation ELISA, Roche). Briefly, 10000 cells were seeded per well in a 96 well plate in 100 μl complete medium and incubated for 24 hours. Protein #21-His and/or compounds were added for an additional 72 hours. BrdU for cell labeling was added for the last 24 hours. Labeled (proliferating) cells were detected according to the manufactures protocol. The data were analyzed using the Graph Pad prism software (log [c] vs. OD450-602 nm plot). Data were fitted using a non-linear regression fit (log(antagonist) vs. response—variable slope (four parameters)).

[1] = Storage stability in PBS analysed by SDS-PAGE; assay type: physicochemical; conditions: for degradation upon prolonged incubation: in PBS at 10 mg/ml at 40° C.
Protocol: “Improved storage stability” in the context of the present invention means the reduction of the amounts of a degradation band, preferably the reduction of the amount of degradation products, as detected by a Coomassie-stained SDS-PAGE occurring after storage at 40° C. for 1 month at 10 mg/ml in PBS, by at least 5%, 10%, 15%, 20%, 25%, 30%, 35%, 40%, 45%, 50%, or 50%. Methods to assess storage stability by SDS-PAGE are well known to the person skilled in the art. Examples of designed ankyrin repeat domains and recombinant binding proteins with improved storage stability properties are given in Examples 2 and 3.
Protein #13-His, Protein #14-His and Protein #15-His were prepared as described in Example 1, and samples were concentrated to 10 mg/ml in PBS. Protein #14-His and Protein #15-His where then stored for 1 month at −80° C. or at 40° C. in glass vials, followed by analysis on SDS 15% PAGE. […] These findings illustrate that Protein #14-His has improved storage stability compared to Proteins #13-His and Protein #15-His.
A storage stability improvement is also observed, when testing the storage stability of Protein #21 and Protein #22 (recombinant binding proteins consisting of the amino acid sequences corresponding to SEQ ID NOs: 21 and 22, respectively). Protein #21 and Protein #22 are prepared as described in Example 1, samples are concentrated to 10 mg/ml in PBS and stored for 1 month at −80° C. in or at 40° C. in glass vials, followed by analysis on standard size-exclusion chromatography.

[2] = Pharmacokinetic analysis in mouse; assay type: in vivo
Protocol: The measurements shown in this example are the result of a half-life engineering effort as described in Example 11. Protein #21-His and Protein #23-His were expressed and purified as described in Example 1. The pharmacokinetic properties of the His-tagged proteins were assessed in mouse as described elsewhere (Zahnd, C., Kawe, M., Stumpp, M. T., de Pasquale, C., Tamaskovic, R., Nagy-Davidescu, G., Dreier, B., Schibli, R., Binz, H. K., Waibel, R., Plückthun, A., Cancer Res. 70, 1595-1605, 2010). […] Having SEQ ID NO: 16 present in the recombinant binding protein thus appears to be more favorable than having SEQ ID NO: 18 present.
Polypeptide linkers that link protein domains are well-known to the person skilled in the art. Gly-Ser-rich linkers are well-known from single-chain Fv antibody fragments, where they have proven to be most appropriate to link the two Fv polypeptide chains. […] Protein #26-His and Protein #27-His, were expressed and purified as described in Example 1. Pharmacokinetic analyses in mouse were performed as described in Example 8.
For the studies in this example Protein #21-His, Protein #24-His, Protein #28-His, Protein #29-His, and Protein #30-His were prepared according to Example 1. Protein #28-His was additionally PEGylated using a 40 kDa PEG moiety (NOF Sunbright GL2-400MA) by maleimid coupling of the PEG-moiety onto the free C-terminal cysteine of Protein #28-His, followed by purification to homogeneity using standard purification methods, procedures well known to the person skilled in the art. Pharmacokinetic analyses in mouse or cynomolgus monkey were performed as described in Examples 8 and 9.

[3] = compound titrated alone or with Protein #21 at 2 nM
[4] = Protein #21 was titrated, Trametinib (10^−5 M), Cobimetinib (10^−5 M) or Salirasib (3*10^−5 M)

IC50 (BT474 cells; [3]): 2540 nM
Molecule: Cc1nc(NC(=O)N2CCC[C@H]2C(N)=O)sc1-c1ccnc(C(C)(C)C(F)(F)F)c1 [Alpelisib]

IC50 (BT474 cells; [3]): 204 nM
Molecule: Cc1c(CN2CCN(C(=O)[C@H](C)O)CC2)sc2c(N3CCOCC3)nc(-c3cnc(N)nc3)nc12 [Apitolisib]

IC50 (BT474 cells; [3]): 2600 nM
Molecule: CC(=O)c1c(C)c2cnc(Nc3ccc(N4CCNCC4)cn3)nc2n(C2CCCC2)c1=O [Palbociclib]

IC50 (BT474 cells; [3]): 105 nM
Molecule: Cc1nc(-c2cn3c(n2)-c2ccc(-c4cnn(C(C)(C)C(N)=O)c4)cc2OCC3)n(C(C)C)n1 [Taselisib]

Second part, the molecule before the results:

Molecule: O=C(c1ccc(F)c(F)c1Nc1ccc(I)cc1F)N1CC(O)([C@@H]2CCCCN2)C1 [Cobimetinib]
IC50 (BT474 cells; [4]): 1.02 nM

Molecule: CC(C)=CCC/C(C)=C/CC/C(C)=C/CSc1ccccc1C(=O)O [Salirasib]
IC50 (BT474 cells; [4]): 0.94 nM

Molecule: CC(=O)Nc1cccc(-n2c(=O)n(C3CC3)c(=O)c3c(Nc4ccc(I)cc4F)n(C)c(=O)c(C)c32)c1 [Trametinib]
IC50 (BT474 cells; [4]): 1.04 nM

B1: Protein #12-His: SEQ ID NO: 12 with a His-tag; designed ankyrin repeat domain with binding specificity for serum albumin (WO2012/069654) (protein)
chain: GSDLGKKLLEAARAGQDDEVRILLKAGADVNAKDYFSHTPLHLAARNGHLKIVEVLLKAGADVNAKDFAGKTPLHLAANDGHLEIVEVLLKAGADVNAQDIFGKTPADIAADAGHEDIAEVLQKAA
modifications: His-tag; Designed ankyrin repeat domain
degradation upon prolonged incubation [1]: degrade

B2: Protein #15-His: SEQ ID NO: 15 with a His-tag; designed ankyrin repeat domain with binding specificity for serum albumin (WO2012/069654) (protein)
chain: GSDLGKKLLEAARAGQDDEVRILMANGADVNAKDYFSHTPLHLAARNGHLKIVEVLLKAGADVNAKDFAGKTPLHLAANDGHLEIVEVLLKHGADVNAQDIFGKTPADIAADAGHEDIAEVLQKAA
modifications: His-tag; Designed ankyrin repeat domain
stability upon storage at −80° C. ([1]; 10 mg/ml in PBS, 1 month at −80° C., SDS 15% PAGE): equivalent stability | degradation upon prolonged incubation [1]: degrade

B3: Protein #26-His: SEQ ID NO: 26 with a His-tag (SEQ ID NO: 1) fused to its N terminus (protein)
chain: MRGSHHHHHHGSDLGKKLLEAARAGQDDEVRILMANGADVNAKDYFSHTPLHLAARNGHLKIVEVLLKAGADVNAKDFAGKTPLHLAANDGHLEIVEVLLKHGADVNAQDIFGKTPADIAADAGHEDIAEVLQKAAGGGGSGGGGSGGGGSGGGGSGSDLGAKLLSDLGVKLLWAAARGQDDEVRILLAAGADVNAKDFQGITPLHIAAQSGHLEIVEVLLKAGADVNAKDVTGDTPLHLAAQHGHLVIVEVLLKAGADVNAQDERGWTPADLAADWGHEDIAEVLQKAAGGGGSGGGGSGSDLGKKLLEAARAGQDDEVRILMANGADVNAKDEYGLTPLYLATAHGHLEIVEVLLKNGADVNAVDAIGFTPLHLAAFIGHLEIAEVLLKHGADVNAQDKFGKTAFDISIGNGNEDLAEILQKAAGGGGSGGGGSGGGGSGGGGSGSDLGKKLLEAARAGQDDEVRILMANGADVNAKDYFSHTPLHLAARNGHLKIVEVLLKAGADVNAKDFAGKTPLHLAANDGHLEIVEVLLKHGADVNAQDIFGKTPADIAADAGHEDIAEVLQKAA
modifications: His-tag; Protein comprising four designed ankyrin repeat domains
injected dose remaining 48 hours after intravenous injection [2]: 5.3%

B4: Protein #30-His: SEQ ID NO: 30 with a His-tag (SEQ ID NO: 1) fused to its N terminus (protein)
chain: MRGSHHHHHHGSDLGKKLLEAARAGQDDEVRILMANGADVNAKDYFSHTPLHLAARNGHLKIVEVLLKAGADVNAKDFAGKTPLHLAANDGHLEIVEVLLKHGADVNAQDIFGKTPADIAADAGHEDIAEVLQKAAGGGGSGGGGSGGGGSGGGGSGSDLGKKLLEAARAGQDDEVRILMANGADVNAKDYFSHTPLHLAARNGHLKIVEVLLKAGADVNAKDFAGKTPLHLAANDGHLEIVEVLLKHGADVNAQDIFGKTPADIAADAGHEDIAEVLQKAAGGGGSGGGGSGGGGSGGGGSGSDLGAKLLSDLGVKLLWAAARGQDDEVRILLAAGADVNAKDFQGITPLHIAAQSGHLEIVEVLLKAGADVNAKDVTGDTPLHLAAQHGHLVIVEVLLKAGADVNAQDERGWTPADLAADWGHEDIAEVLQKAAGGGGSGGGGSGSDLGKKLLEAARAGQDDEVRILMANGADVNAKDEYGLTPLYLATAHGHLEIVEVLLKNGADVNAVDAIGFTPLHLAAFIGHLEIAEVLLKHGADVNAQDKFGKTAFDISIGNGNEDLAEILQKAA
modifications: His-tag; Protein comprising four designed ankyrin repeat domains
mouse pharmacokinetic profile, two versus one serum albumin binding domain ([2]; Protein #30-His compared to Protein #29-His, FIG. 5B): benefit of having two designed ankyrin repeat domains with binding specificity for serum albumin

B5: Protein #27-His: SEQ ID NO: 27 with a His-tag (SEQ ID NO: 1) fused to its N terminus (protein)
chain: MRGSHHHHHHGSDLGKKLLEAARAGQDDEVRILMANGADVNAKDYFSHTPLHLAARNGHLKIVEVLLKAGADVNAKDFAGKTPLHLAANDGHLEIVEVLLKHGADVNAQDIFGKTPADIAADAGHEDIAEVLQKAAGSPTPTPTTPTPTPTTPTPTPTGSDLGAKLLSDLGVKLLWAAARGQDDEVRILLAAGADVNAKDFQGITPLHIAAQSGHLEIVEVLLKAGADVNAKDVTGDTPLHLAAQHGHLVIVEVLLKAGADVNAQDERGWTPADLAADWGHEDIAEVLQKAAGSPTPTPTTPTPTPTTPTPTPTGSDLGKKLLEAARAGQDDEVRILMANGADVNAKDEYGLTPLYLATAHGHLEIVEVLLKNGADVNAVDAIGFTPLHLAAFIGHLEIAEVLLKHGADVNAQDKFGKTAFDISIGNGNEDLAEILQKAAGSPTPTPTTPTPTPTTPTPTPTGSDLGKKLLEAARAGQDDEVRILMANGADVNAKDYFSHTPLHLAARNGHLKIVEVLLKAGADVNAKDFAGKTPLHLAANDGHLEIVEVLLKHGADVNAQDIFGKTPADIAADAGHEDIAEVLQKAA
modifications: His-tag; Protein comprising four designed ankyrin repeat domains
injected dose remaining 48 hours after intravenous injection [2]: 7% | terminal half-life, comparison [2]: longer terminal half-life than Protein #26-His
